Results reported in paper PMC7080599 (European journal of nuclear medicine and molecular imaging, 2019).

Target: T1, lymphokine-activated killer T-cell-originated protein kinase (TOPK) (Homo sapiens, UniProt Q96KB5)
T1 sequence (Q96KB5 1-322): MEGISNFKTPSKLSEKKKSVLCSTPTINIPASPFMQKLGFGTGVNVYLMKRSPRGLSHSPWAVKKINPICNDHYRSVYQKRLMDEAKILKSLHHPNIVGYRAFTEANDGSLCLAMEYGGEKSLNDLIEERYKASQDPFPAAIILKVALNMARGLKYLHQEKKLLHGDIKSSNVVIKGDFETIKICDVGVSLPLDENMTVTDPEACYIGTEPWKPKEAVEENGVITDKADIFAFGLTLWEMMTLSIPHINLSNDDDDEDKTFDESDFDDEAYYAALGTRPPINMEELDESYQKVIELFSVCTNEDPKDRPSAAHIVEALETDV
Assay: in vitro TOPK kinase assay
Assay type: biochemical

Cc1cc(O)c(-c2ccc([C@@H](C)CNc3ccc([N+](=O)[O-])c4nonc34)cc2)c2c1[nH]c(=O)c1sccc12 [TOPKi-NBD, (R)-8-hydroxy-6-methyl-9-(4-(1-((7-nitrobenzo[c][1,2,5]oxadiazol-4-yl)amino)propan-2-yl)phenyl)thieno[2,3-c]quinolin-4(5H)-one]
EC50: 0.49 ± 0.17 µM
